{"source": "patent US7087769B1", "about": "“Process for the preparation of cationic surfactants” (Laboratorios Miret, S.A., priority 2000, dated 2006)", "origin": "cited, not measured here", "key": {"[1]": {"tested_on": "Escherichia coli", "conditions": "EP-A-0 749 960"}, "[2]": {"tested_on": "Staphylococcus aureus", "conditions": "EP-A-0 749 960"}, "[3]": {"tested_on": "Pseudomonas aeruginosa", "conditions": "EP-A-0 749 960"}, "[4]": {"tested_on": "Candida albicans", "conditions": "EP-A-0 749 960"}, "[5]": {"tested_on": "Aspergillus niger", "conditions": "EP-A-0 749 960"}, "[6]": {"tested_on": "Alcaligenes faecalis"}, "[7]": {"tested_on": "Bordetella bronchiseptica"}, "[8]": {"tested_on": "Citrobacter freundii"}, "[9]": {"tested_on": "Enterobacter aerogenes"}, "[10]": {"tested_on": "Klebsiella pneumoniae spp. pneumoniae"}, "[11]": {"tested_on": "Proteus mirabilis"}, "[12]": {"tested_on": "Salmonelly thyphimurium"}, "[13]": {"tested_on": "Serratia marcescens"}, "[14]": {"tested_on": "Bacillus subtilus"}, "[15]": {"tested_on": "Bacillus cereus spp. mycoide"}, "[16]": {"tested_on": "Micrococcus luteus"}, "[17]": {"tested_on": "Arthrobacter oxydans"}, "[18]": {"tested_on": "Mycobacterium phlei"}, "[19]": {"tested_on": "Listeria monocytogenes"}, "[20]": {"tested_on": "Rhodotorula rubra"}, "[21]": {"tested_on": "Saccharomyces cerevisiae"}, "[22]": {"tested_on": "Zygosaccharomyces rouxii"}, "[23]": {"tested_on": "Mucor rouxii"}, "[24]": {"tested_on": "Aureobasidium pullulans"}, "[25]": {"tested_on": "Chaetonium globosum"}, "[26]": {"tested_on": "Gliocadium virens"}, "[27]": {"tested_on": "Penicillium chrysogenum"}, "[28]": {"tested_on": "Penicillium funiculosum"}, "[29]": {"conditions": "animals"}, "[30]": {"conditions": "human beings"}}, "note": "Like-named read-outs stand apart in the source and are kept apart here."}
{"compound": "CCCCCCCCCCCC(=O)N[C@@H](CCCNC(=N)N)C(=O)OCC.Cl", "note": "[ethyl ester of N^α-lauroyl-L-arginine monohydrochloride]", "values": [{"measurement": "efficacy against microorganism", "setting": "[1]", "result": "proven"}, {"measurement": "efficacy against microorganism", "setting": "[2]", "result": "proven"}, {"measurement": "efficacy against microorganism", "setting": "[3]", "result": "proven"}, {"measurement": "efficacy against microorganism", "setting": "[4]", "result": "proven"}, {"measurement": "efficacy against microorganism", "setting": "[5]", "result": "proven"}, {"measurement": "efficacy against bacteria", "setting": "[6]", "result": "efficaceous"}, {"measurement": "efficacy against bacteria", "setting": "[7]", "result": "efficaceous"}, {"measurement": "efficacy against bacteria", "setting": "[8]", "result": "efficaceous"}, {"measurement": "efficacy against bacteria", "setting": "[9]", "result": "efficaceous"}, {"measurement": "efficacy against bacteria", "setting": "[10]", "result": "efficaceous"}, {"measurement": "efficacy against bacteria", "setting": "[11]", "result": "efficaceous"}, {"measurement": "efficacy against bacteria", "setting": "[12]", "result": "efficaceous"}, {"measurement": "efficacy against bacteria", "setting": "[13]", "result": "efficaceous"}, {"measurement": "efficacy against bacteria", "setting": "[14]", "result": "efficaceous"}, {"measurement": "efficacy against bacteria", "setting": "[15]", "result": "efficaceous"}, {"measurement": "efficacy against bacteria", "setting": "[16]", "result": "efficaceous"}, {"measurement": "efficacy against bacteria", "setting": "[17]", "result": "efficaceous"}, {"measurement": "efficacy against bacteria", "setting": "[18]", "result": "efficaceous"}, {"measurement": "efficacy against bacteria", "setting": "[19]", "result": "efficaceous"}, {"measurement": "efficacy against yeasts", "setting": "[20]", "result": "efficaceous"}, {"measurement": "efficacy against yeasts", "setting": "[21]", "result": "efficaceous"}, {"measurement": "efficacy against yeasts", "setting": "[22]", "result": "efficaceous"}, {"measurement": "efficacy against fungi", "setting": "[23]", "result": "efficaceous"}, {"measurement": "efficacy against fungi", "setting": "[24]", "result": "efficaceous"}, {"measurement": "efficacy against fungi", "setting": "[25]", "result": "efficaceous"}, {"measurement": "efficacy against fungi", "setting": "[26]", "result": "efficaceous"}, {"measurement": "efficacy against fungi", "setting": "[27]", "result": "efficaceous"}, {"measurement": "efficacy against fungi", "setting": "[28]", "result": "efficaceous"}, {"measurement": "tolerability", "setting": "[29]", "result": "well tolerated"}, {"measurement": "tolerability", "setting": "[30]", "result": "well tolerated"}]}
